From US20240216357A1 (SICHUAN HUIYU PHARMACEUTICAL CO., LTD., priority 2021, published 2024)
Where a name gives a salt, the structure may show the parent alone.

Key:
LSD1 = LSD1 (Homo sapiens (Human), UniProt O60341); assay: LSD1 enzyme activity detection (HTRF); assay type: biochemical; conditions: HTRF, H3K4me1 substrate; read-out: Inhibition of enzymatic activity of LSD1 IC50
NCI-H1417 cells = assay: In vitro cell proliferation detection (CellTiter-Glo, 7 days); assay type: cell-based; conditions: Homo sapiens, 168 h; NCI-H1417 cells, 7 days, CellTiter-Glo; read-out: NCI-H1417 proliferation inhibition IC50

SMILES	IC50 (LSD1)	IC50 (NCI-H1417 cells)
Cc1ccc(-c2c(-c3ccc(C#N)c(F)c3)nc(N3C4CCC3CC(N)C4)n3ccnc23)cc1O (stereo not shown) [Example 156, 4-(5-(3-amino-8-azabicyclo[3.2.1]octane-8-yl)-8-(3-hydroxy-4-methylphenyl)imidazolo[1,2-c]pyrimidin-7-yl)-2-fluorobenzo nitrile hydrochloride]	0.2 ± 0.06 nM	0.447 nM
N#Cc1ccc(-c2nc(N3C4CCC3CC(N)C4)n3ccnc3c2-c2ccc(F)c(O)c2)cc1F (stereo not shown) [Example 157, 4-(5-(3-amino-8-azabicyclo [3.2.1]octane-8-yl)-8-(4-fluoro-3-hydroxyphenyl)imidazolo [1,2-c]pyrimidin-7-yl)-2-fluorobenzonitrile hydrochloride]	0.3 ± 0.3 nM	2.05 nM
N#Cc1ccc(-c2nc(N3C4CCC3CC(N)C4)n3ccnc3c2-c2ccc(Cl)c(O)c2)cc1F (stereo not shown) [Example 158, 4-(5-(3-amino-8-azabicyclo[3.2.1]octane-8-yl)-8-(4-chloro-3-hydroxyphenyl)imidazolo[1,2-c]pyrimidin-7-yl)-2-fluorobenzonitrile hydrochloride]	0.2 ± 0.2 nM	0.763 nM
Cc1ccc(-c2c(-c3ccc(C#N)c(F)c3)nc(N3CC4CCC(C3)C4N)n3ccnc23)cc1O (stereo not shown) [Example 159, 4-(5-(8-amino-3-azabicyclo[3. 2.1]octane-3-yl)-8-(3-hydroxy-4-methylphenyl)imidazolo[1,2-c]pyrimidin-7-yl)-2-fluorobenzonitrile]	2.8 ± 1 nM	5.82 nM
Cc1ccc(-c2c(-c3ccc(C#N)c(F)c3)nc(N3CC4CC3CC4N)n3ccnc23)cc1O (stereo not shown) [Example 160, 4-(5-(5-amino-2-azadicyclo[2. 2.1]heptan-2-yl)-8-(3-hydroxy-4-methylphenyl)imidazolo[1,2-c]pyrimidin-7-yl)-2-fluorobenzonitrile hydrochloride]	1.2 ± 0.2 nM	0.29 nM
COc1ccc(-c2c(-c3ccc(C#N)c(F)c3)nc(N3CC4CCC(C3)C4N)n3ccnc23)cc1O (stereo not shown) [Example 161, 4-(5-(8-amino-3-azabicyclo[3. 2.1]octane-3-yl)-8-(3-hydroxy-4-methoxyphenyl)imidazolo[1,2-c]pyrimidin-7-yl)-2-fluorobenzonitrile hydrochloride]	3.9 ± 0.2 nM	8.37 nM
COc1ccc(-c2c(-c3ccc(C#N)c(F)c3)nc(N3CC4CCC(C3)C4N)n3ccnc23)cc1F (stereo not shown) [Example 162, 4-(5-(8-amino-3-azabicyclo [3.2.1]octyl-3-yl)-8-(3-fluoro-4-methoxyphenyl)imidazolo[1,2-c]pyrimidin-7-yl)-2-fluorobenzonitrile hydrochloride]	59.9 nM	11.7 nM
COc1ccc(-c2c(-c3ccc(C#N)c(F)c3)nc(N3CC4CC(C3)C4N)n3ccnc23)cc1O (stereo not shown) [Example 163, 4-(5-(6-amino-3-azabicyclo[3.1.1]heptan-3-yl)-8-(3-hydroxy-4-methoxyphenyl)imidazolo[1,2-c]pyrimidin-7-yl)-2-fluorobenzonitrile hydrochloride]	5.6 ± 1.6 nM	9.11 nM
Cc1ccc(-c2c(-c3ccc(C#N)c(F)c3)nc(N3CC4CC(C3)C4N)n3ccnc23)cc1O (stereo not shown) [Example 165, 4-(5-(6-amino-3-azabicyclo [3.1.1]heptane-3-yl)-8-(3-hydroxy-4-methylphenyl)imidazolo[1,2-c]pyrimidin-7-yl)-2-fluorobenzonitrile]	3.4 ± 1.5 nM	4.68 nM
COc1ccc(-c2c(-c3ccc(C#N)c(F)c3)nc(N3CC4CCC3CC4N)n3ccnc23)cc1O (stereo not shown) [Example 166, 4-(5-(5-amino-2-azabicyclo [2.2.2]octane-2-yl)-8-(3-hydroxy-4-methoxyphenyl)imidazolo[1,2-c]pyrimidin-7-yl)-2-fluorobenzonitrile hydrochloride]	1 ± 0.5 nM	2.39 nM
COc1ccc(-c2c(-c3ccc(C#N)c(F)c3)nc(N3CC4CC(C3)C4N)n3ccnc23)cc1F (stereo not shown) [Example 167, 4-(5-(6-amino-3-azabicyclo [3.1.1]heptane-3-yl)-8-(3-fluoro-4-methoxyphenyl)imidazolo[1,2-c]pyrimidin-7-yl)-2-fluorobenzonitrile hydrochloride]	78.4 nM	155 nM
Cc1ccc(-c2c(-c3ccc(C#N)c(F)c3)nc(N3CC4CCC3CC4N)n3ccnc23)cc1O (stereo not shown) [Example 168, 4-(5-(5-amino-2-azabicyclo [2.2.2]octane-2-yl)-8-(3-hydroxy-4-methylphenyl)imidazolo[1,2-c]pyrimidin-7-yl)-2-fluorobenzo nitrile]	0.5 ± 0.1 nM	1.24 nM
COc1ccc(-c2c(-c3ccc(C#N)c(F)c3)nc(N3CC4CCC3CC4N)n3ccnc23)cc1F (stereo not shown) [Example 170, 4-(5-(5-amino-2-azabicyclo[2.2.2]octane-2-yl)-8-(3-fluoro-4-methoxyphenyl)imidazolo[1,2-c]pyrimidin-7-yl)-2-fluorobenzonitrile hydrochloride]	13.2 nM	18.3 nM
N#Cc1ccc(-c2nc(N3C4CCC3CC(N)C4)n3ccnc3c2-c2cc3c(cc2F)CCN3)cc1F (stereo not shown) [Example 171]	1.9 ± 1.5 nM	6 nM
N#Cc1ccc(-c2nc(N3C4CCC3CC(N)C4)n3ccnc3c2-c2cc3nc[nH]c3cc2F)cc1F (stereo not shown) [Example 172, 4-(5-(3-amino-8-azabicyclo[3.2.1]octane-8-yl)-8-(6-fluoro-1H-benzo[d]imidazole-5-yl)imidazolo [1,2-c]pyrimidin-7-yl)-2-fluorobenzonitrile]	5 ± 4.1 nM	149 nM
N#Cc1ccc(-c2nc(N3C4CCC3CC(N)C4)n3ccnc3c2-c2cc3[nH]ncc3cc2F)cc1F (stereo not shown) [Example 173, 4-(5-(3-amino-8-azabicyclo[3.2.1]octane-8-yl)-8-(5-fluoro-1H-indazole-6-yl)imidazolo[1,2-c]pyrimidin-7-yl)-2-fluorobenzonitrile hydrochloride]	0.8 ± 0.2 nM	8.15 nM
Cn1ccc2cc(F)c(-c3c(-c4ccc(C#N)c(F)c4)nc(N4C5CCC4CC(N)C5)n4ccnc34)cc21 (stereo not shown) [Example 174, 4-(5-(3-amino-8-azabicyclo[3.2.1]octane-8-yl)-8-(5-fluoro-1-methyl-1H-indole-6-yl)imidazolo [1,2-c]pyrimidin-7-yl)-2-fluoro benzonitrile]	13.2 nM	14.4 nM
COc1ccc(-c2c(-c3ccc(C#N)nc3)nc(N3C4CCC3CC(N)C4)n3ccnc23)cc1F (stereo not shown) [Example 176, 5-(5-(3-amino-8-azabicyclo[3.2.1]octane-8-yl)-8-(3-fluoro-4-methoxyphenyl)imidazolo[1,2-c]pyrimidin-7-yl) picolinonitrile hydrochloride]	16.8 nM	21.6 nM
COc1ccc(-c2c(-c3ccc(C#N)cc3)nc(N3C4CCC3CC(N)C4)n3ccnc23)cc1F (stereo not shown) [Example 178, 4-(5-(3-amino-8-azabicyclo [3.2.1]octane-8-yl)-8-(3-fluoro-4-methoxyphenyl)imidazolo[1,2-c]pyrimidin-7-yl) benzonitrile hydrochloride]	3.8 ± 2.2 nM	6.24 nM
COc1ccc(-c2c(-c3ccc(C#N)c(F)c3F)nc(N3C4CCC3CC(N)C4)n3ccnc23)cc1F (stereo not shown) [Example 183, 4-(5-(3-amino-8-azabicyclo[3.2.1]octane-8-yl)-8-(3-fluoro-4-methoxyphenyl)imidazolo[1,2-c]pyrimidin-7-yl)-2,3-difluorobe nzonitrile hydrochloride]	3.6 ± 0.6 nM	6.28 nM
